Laboratory results from US7674586B2, “Methods of identifying modulators of L-glutamate-gated chloride channel proteins from Rhipicephalus sanguineus” (Merial Limited, priority 2000, dated 2010).

How the values were obtained:
RsGluCl2 = assay: Two-microelectrode voltage clamp of Xenopus oocytes injected with RsGluCl2 RNA; format: cell-based, Rhipicephalus sanguineus; settings: for channel activation / current in response (qualitative): RsGluCl2 expressed in Xenopus oocytes as a single functional channel
Method: (§1) Xenopus laevis oocytes were prepared and injected using standard methods previously described [Arena, J. P., Liu, K. K., Paress, P. S. & Cully, D. P. Mol. Pharmacol. 40, 368-374 (1991); Arena, J. P., Liu, K. K., Paress, P. S., Schaeffer, J. M. & Cully, D. F., Mol. Brain. Res. 15, 339-348 (1992)]. Adult female Xenopus laevis were anesthetized with 0.17% tricaine methanesulfonate and the ovaries were surgically removed and placed in a solution consisting of (mM): NaCl 82.5, KCl 2, MgCl2 1, HEPES 5, NaPyruvate 2.5, Penicillin G. 100,000 units/L, Streptomycin Sulfate 1000 mg/L, pH 7.5 (Mod. OR-2). Ovarian lobes were broken open, rinsed several times in Mod. OR-2, and incubated in 0.2% collagenase (Sigma, Type1) in Mod. OR-2 at room temperature with gentle shaking. After 1 hour the collagenase solution was renewed and the oocytes were incubated for an additional 30-90 min until approximately 50% of the oocytes were released from the ovaries. Stage V and VI oocytes were selected and placed in media containing (mM): NaCl 96, KCl 2, MgCl2 1, CaCl2 1.8, HEPES 5, NaPyruvate 2.5, theophylline 0.5, gentamicin […], pH 7.5 (ND-96) for 16-24 hours before injection. Oocytes were injected with 50 nl of Dv8, Dv9, RsGluCl1 or RsGluCl2 RNA at a concentration of 0.2 mg/ml. Oocytes were incubated at 18° C. for 1-6 days in ND-96 before recording.
Recordings were made at room temperature in modified ND-96 consisting of (mM: NaCl 96, MgCl2 1, CaCl2 0.1, BaCl2 3.5, HEPES 5, pH 7.5. Oocytes were voltage clamped using a Dagan CA1 two microelectrode amplifier (Dagan Corporation, Minneapolis, Minn.) interfaced to a Macintosh 7100/80 computer. The current passing electrode was filled with 0.7 M KCl, 1.7 M KCitrate, and the voltage recording electrode was filled with 1 M KCl. Throughout the experiment oocytes were superfused with modified ND-96 (control solution) or with ND-96 containing potential channel activators and blockers at a rate of approximately 3 ml/min. Data were acquired at 100 Hz and filtered at 33.3 Hz using Pulse software from HEKA Elektronik (Lambrecht, Germany). […]

RsGluCl1 (T12) = assay: Two-microelectrode voltage clamp of Xenopus oocytes injected with RsGluCl1 T12 RNA; format: cell-based, Rhipicephalus sanguineus; settings: for channel activation / current in response (qualitative): RsGluCl1 expressed in Xenopus oocytes
Method: as §1
Recordings were made at room temperature in modified ND-96 consisting of (mM: NaCl 96, MgCl2 1, CaCl2 0.1, BaCl2 3.5, HEPES 5, pH 7.5. Oocytes were voltage clamped using a Dagan CA1 two microelectrode amplifier (Dagan Corporation, Minneapolis, Minn.) interfaced to a Macintosh 7100/80 computer. The current passing electrode was filled with 0.7 M KCl, 1.7 M KCitrate, and the voltage recording electrode was filled with 1 M KCl. Throughout the experiment oocytes were superfused with modified ND-96 (control solution) or with ND-96 containing potential channel activators and blockers at a rate of approximately 3 ml/min. Data were acquired at 100 Hz and filtered at 33.3 Hz using Pulse software from HEKA Elektronik (Lambrecht, Germany). All recordings were performed from a holding potential of either 0 or −30 mV.
cRNA was synthesized from the RsGluCl 1S clone T12 and expressed in Xenopus oocytes. The channel encoded by RsGluCl-1 is a glutamate-gated chloride channel activated by IVM-PO4.

| Compound | concentration at which current activation was maximal (RsGluCl2; RsGluCl2 expressed in Xenopus oocytes, FIG. 11) | current produced on application (RsGluCl1 (T12); 100 nM, compared with the glutamate-activated current, RsGluCl1 T12 in Xenopus oocytes) | channel activation / current in response (qualitative) (RsGluCl2) | concentration at which current activation was maximal (RsGluCl1 (T12); RsGluCl1 T12 RNA in Xenopus oocytes, FIG. 10) | channel activation / current in response (qualitative) (RsGluCl1 (T12)) |
| --- | --- | --- | --- | --- | --- |
| CC[C@H](C)[C@H]1O[C@]2(CC[C@@H]1C)C[C@@H]1C[C@@H](C/C=C(\C)[C@@H](O[C@H]3C[C@H](OC)[C@@H](O[C@H]4C[C@H](OC)[C@@H](O)[C@H](C)O4)[C@H](C)O3)[C@@H](C)/C=C/C=C3\CO[C@@H]4[C@H](O)C(C)=C[C@@H](C(=O)O1)[C@]34O)O2 [ivermectin, 22,23-dihydro-avermectin B1a] | ~1 µM | produces a similar although non-inactivating current |  |  |  |
| N[C@@H](CCC(=O)O)C(=O)O [glutamate] |  |  | failed to activate a current | 10 µM | exhibits a current |
| ivermectin phosphate |  |  | exhibit a current |  | activated |
